# What was measured:
# Format in all cases: cell-based
# N87 = assay: In vitro tumor cell proliferation assay (Cell Titer-Glo) in N87 cells; conditions: N87 human gastric carcinoma overexpressing HER2 and HER1; 72 hours exposure; read-out: IC50, activities in N87 cell lines
# From the text: (§1) The tumor cell proliferation assay used to test the compounds of the present invention involves a readout called Cell Titer-Glow® Luminescent Cell Viability Assay developed by Promega® (Cunningham, BA “A Growing Issue: Cell Proliferation Assays, Modern kits ease quantification of cell growth” The Scientist 2001, 15(13), 26, and Crouch, S P et al., “The use of ATP bioluminescence as a measure of cell proliferation and cytotoxicity” Journal of Immunological Methods 1993, 160, 81-88), that measures inhibition of cell proliferation. Generation of a luminescent signal corresponds to the amount of ATP present, which is directly proportional to the number of metabolically active (proliferating) cells. A431 cells [human epidermoid carcinoma, ATCC # HTB-20, overexpressing HER1 (EGFR, ErbB1)] and N87 [human gastric carcinoma, ATCC # CRL-1555, overexpressing HER2 (ErbB2) and HER1 (EGFR, ErbB1)] were plated at a density of 2.5×10^3 cells/well in 96 well black-clear bottom tissue culture plates in RPMI media with 10% Fetal Bovine Serum and incubated at 37° C. Twenty-four hours later, test compounds are added at a final concentration range from as high 100 μm to as low […] depend on the activities of the tested compounds in serial dilutions at a final DMSO concentration of 0.1%. Cells were incubated for 72 hours at 37° C. in complete growth media after addition of the test compound. After 72 hours of drug exposure, the plates were equilibrated to room temperature for approximately 30 min. Then, using a Promega Cell Titer Glo Luminescent® assay kit, lysis buffer containing 100 microliters of the enzyme luciferase and its substrate, luciferin mixture, was added to each well. The plates were mixed for 2 min on orbital shaker to ensure cell lysis and incubated for 10 min at room temperature to stabilize luminescence signal. The samples were read on VICTOR2 using Luminescence protocol, and analyzed with Analyze5 software to generate IC50 values.
# A431 cells = assay: In vitro tumor cell proliferation assay (Cell Titer-Glo) in A431 cells; conditions: Homo sapiens, A-431, 72 h, A431 human epidermoid carcinoma overexpressing HER1; 72 hours exposure; read-out: IC50, activities in A431 cell lines
# From the text: as §1
# H1975 cells = assay: In vitro tumor cell proliferation assay (Cell Titer-Glo) in H1975 cells; conditions: NCI-H1975; H1975 human NSCLC expressing mutant HER1 (L858R,T790M); 72 hours exposure; read-out: IC50, activities in H 1975 cell lines
# From the text: The tumor cell proliferation assay used to test the compounds of the present invention involves a readout called Cell Titer-Glow® Luminescent Cell Viability Assay developed by Promega® (Cunningham, BA “A Growing Issue: Cell Proliferation Assays, Modern kits ease quantification of cell growth” The Scientist 2001, 15(13), 26, and Crouch, S P et al., “The use of ATP bioluminescence as a measure of cell proliferation and cytotoxicity” Journal of Immunological Methods 1993, 160, 81-88), that measures inhibition of cell proliferation. Generation of a luminescent signal corresponds to the amount of ATP present, which is directly proportional to the number of metabolically active (proliferating) cells.
# H1975 cells [human non small cell lung carcinoma, ATCC # CRL-5908, expressing mutant HER1 [(EGFR, ErbB1)(L858R,T790M] were plated at a density of 3×10^3 cells/well in 96 well black-clear bottom tissue culture plates in RPMI media with 10% Fetal Bovine Serum and incubated at 37° C. Twenty-four hours later, test compounds are added at a final concentration range from as high 10 uM to as low 64 pM depending on the activities of the tested compounds in serial dilutions at a final DMSO concentration of 0.1%. Cells were incubated for 72 hours at 37° C. in complete growth media after addition of the test compound. After 72 hours of drug exposure, the plates were equilibrated to room temperature for approximately 30 min. Then, using a Promega Cell Titer Glo Luminescent® assay kit, lysis buffer containing 100 microliters of the enzyme luciferase and its substrate, luciferin mixture, was added to each well. The plates were mixed for 2 min on orbital shaker to ensure cell lysis and incubated for 10 min at room temperature to stabilize luminescence signal. The samples were read on VICTOR2 using Luminescence protocol, and analyzed with Analyze5 software to generate IC50 values.
IC50 (N87),IC50 (A431 cells),IC50 (H1975 cells),SMILES
200 to 5000 nM,1000 to 10000 nM,1000 to 10000 nM,"O=C(/C=C/CN1CCc2ccccc21)N1CCc2c(sc3ncnc(Nc4ccc(F)c(Cl)c4)c23)C1 [Example 38, N-(3-chloro-4-fluorophenyl)-7-[(2E)-4-(2,3-dihydro-1H-indol-1-yl)but-2-enoyl]-5,6,7,8-tetrahydropyrido [4′3′:4,5]thieno[2,3-d]pyrimidin-4-amine]"
< 200 nM,200 to 1000 nM,200 to 1000 nM,"CCN(C)C/C=C/C(=O)N1CCc2c(sc3ncnc(Nc4ccc(F)c(Cl)c4)c23)C1 [Example 40, N-(3-chloro-4-fluorophenyl)-7-{(2E)-4-[ethyl(methyl)amino]but-2-enoyl}-5,6,7,8-tetrahydropyrido [4′,3′:4,5]thieno[2,3-d]pyrimidin-4-amine]"
< 200 nM,1000 to 10000 nM,1000 to 10000 nM,"O=C(/C=C/CN1CCSCC1)N1CCc2c(sc3ncnc(Nc4ccc(F)c(Cl)c4)c23)C1 [Example 42, N-(3-chloro-4-fluorophenyl)-7-[(2E)-4-thiomorpholin-4-ylbut-2-enoyl]-5,6,7,8-tetrahydropyrido [4′,3′:4,5]thieno[2,3-d]pyrimidin-4-amine]"
< 200 nM,1000 to 10000 nM,200 to 1000 nM,"O=C(/C=C/CN1CCC(N2CCCCC2)CC1)N1CCc2c(sc3ncnc(Nc4ccc(F)c(Cl)c4)c23)C1 [Example 45, 7-[(2E)-4-(1,4′-bipiperidin-1-yl)but-2-enoyl]-N-(3-chloro-4-fluorophenyl)-5,6,7,8-tetrahydropyrido [4′,3′:4,5]thieno[2,3-d]pyrimidin-4-amine]"
< 200 nM,200 to 1000 nM,200 to 1000 nM,"O=C(/C=C/CN1CCCC(CO)C1)N1CCc2c(sc3ncnc(Nc4ccc(OCc5ccccn5)c(Cl)c4)c23)C1 (stereo not drawn) [Example 47, (1-{(2E)-4-[4-{[3-chloro-4-(pyridin-2-ylmethoxy)phenyl]amino}-5,8-dihydropyrido [4′,3′:4,5]thieno[2,3-d]pyrimidin-7(6H)-yl]-4-oxobut-2-en-1-yl}piperidin-3-yl)methanol]"
< 200 nM,1000 to 10000 nM,1000 to 10000 nM,"CC1CCC(C)N1C/C=C/C(=O)N1CCc2c(sc3ncnc(Nc4ccc(OCc5ccccn5)c(Cl)c4)c23)C1 (stereo not drawn) [Example 48, N-[3-chloro-4-(pyridin-2-ylmethoxy)phenyl]-7-[(2E)-4-(2,5-dimethylpyrrolidin-1-yl)but-2-enoyl]-5,6,7,8-tetrahydropyrido [4′,3′:4,5]thieno[2,3-d]pyrimidin-4-amine]"
< 200 nM,200 to 1000 nM,200 to 1000 nM,"CCN(C)C/C=C/C(=O)N1CCc2c(sc3ncnc(Nc4ccc(OCc5ccccn5)c(Cl)c4)c23)C1 [Example 49, N-(3-chloro-4-(pyridin-2-ylmethoxy)phenyl]-7-{(2E)-4-[ethyl(methyl)amino]but-2-enoyl}-5,6,7,8-tetrahydropyrido [4′,3′:4,5]thieno[2,3-d]pyrimidin-4-amine]"
< 200 nM,200 to 1000 nM,1000 to 10000 nM,"O=C(/C=C/Cn1ccnc1)N1CCc2c(sc3ncnc(Nc4ccc(OCc5ccccn5)c(Cl)c4)c23)C1 [Example 51, N-[3-chloro-4-(pyridin-2-ylmethoxy)phenyl]-7-[(2E)-4-(1H-imidazol-1-yl)but-2-enoyl]-5,6,7,8-tetrahydropyrido [4′,3′:4,5]thieno[2,3-d]pyrimidin-4-amine]"

# Second part, the compound before the results:
SMILES,IC50 (N87),IC50 (A431 cells),IC50 (H1975 cells)
"C#Cc1cccc(Nc2ncnc3sc4c(c23)CCN(C(=O)C2=CCCN(C)C2)C4)c1 [Example 31, N-(3-ethynylphenyl)-7-[(1-methyl-1,2,5,6-tetrahydropyridin-3-yl)carbonyl]-5,6,7,8-tetrahydropyrido [4′,3′:4,5]thieno[2,3-d]pyrimidin-4-amine]",200 to 5000 nM,1000 to 10000 nM,1000 to 10000 nM
"O=C(/C=C/CN(CCO)CCO)N1CCc2c(sc3ncnc(Nc4ccc(F)c(Cl)c4)c23)C1 [Example 32, 2,2′-{[(2E)-4-{4-[(3-chloro-4-fluorophenyl)amino]-5,8-dihydropyrido [4′,3′:4,5]thieno[2,3-d]pyrimidin-7(6H)-yl}-4-oxobut-2-en-1-yl]imino}diethanol]",< 200 nM,1000 to 10000 nM,1000 to 10000 nM
"O=C(/C=C/CN1CCSC1)N1CCc2c(sc3ncnc(Nc4ccc(F)c(Cl)c4)c23)C1 [Example 35, N-(3-chloro-4-fluorophenyl)-7-[(2E)-4-(1,3-thiazolidin-3-yl)but-2-enoyl]-5,6,7,8-tetrahydropyrido [4′3′:4,5]thieno[2,3-d]pyrimidin-4-amine]",200 to 5000 nM,1000 to 10000 nM,1000 to 10000 nM
"CCN(C/C=C/C(=O)N1CCc2c(sc3ncnc(Nc4ccc(F)c(Cl)c4)c23)C1)C(C)C [Example 37, N-(3-chloro-4-fluorophenyl)-7-{(2E)-4-[ethyl(isopropyl)amino]but-2-enoyl}-5,6,7,8-tetrahydropyrido [4′3′:4,5]thieno[2,3-d]pyrimidin-4-amine]",< 200 nM,1000 to 10000 nM,1000 to 10000 nM
"CC(O)CN(C/C=C/C(=O)N1CCc2c(sc3ncnc(Nc4ccc(F)c(Cl)c4)c23)C1)CC(C)O (stereo not drawn) [Example 39, 1,1′-{[(2E)-4-{4-[(3-chloro-4-fluorophenyl)amino]-5,8-dihydropyrido [4′,3′:4,5]thieno[2,3-d]pyrimidin-7(6H)-yl}-4-oxobut-2-en-1-yl]imino}dipropan-2-ol]",< 200 nM,1000 to 10000 nM,1000 to 10000 nM
CC1CN(C/C=C/C(=O)N2CCc3c(sc4ncnc(Nc5ccc(F)c(Cl)c5)c34)C2)CC(C)O1 (stereo not drawn) [Example 41],< 200 nM,200 to 1000 nM,1000 to 10000 nM
"O=C(/C=C/CN(CCO)CCO)N1CCc2c(sc3ncnc(Nc4ccc(OCc5ccccn5)c(Cl)c4)c23)C1 [Example 43, 2,2′-({(2E)-4-[4-{[3-chloro-4-(pyridin-2-ylmethoxy)phenyl]amino}-5,8-dihydropyrido [4′,3′:4,5]thieno[2,3-d]pyrimidin-7(6H)-yl]-4-oxobut-2-en-1-yl}imino)diethanol]",< 200 nM,1000 to 10000 nM,1000 to 10000 nM
"O=C(/C=C/CN1CCc2ccccc21)N1CCc2c(sc3ncnc(Nc4ccc(OCc5ccccn5)c(Cl)c4)c23)C1 [Example 44, N-[3-chloro-4-(pyridin-2-ylmethoxy)phenyl]-7-[(2E)-4-(2,3-dihydro-1H-indol-1-yl)but-2-enoyl]-5,6,7,8-tetrahydropyndo [4′,3′:4,5]thieno[2,3-d]pyrimidin-4-amine]",< 200 nM,1000 to 10000 nM,1000 to 10000 nM
"CC1CC(C)CN(C/C=C/C(=O)N2CCc3c(sc4ncnc(Nc5ccc(OCc6ccccn6)c(Cl)c5)c34)C2)C1 (stereo not drawn) [Example 46, N-[3-chloro-4-(pyridin-2-ylmethoxy)phenyl]-7-[(2E)-4-(3,5-dimethylpiperidin-1-yl)but-2-enoyl]-5,6,7,8-tetrahydropyrido [4′,3′:4,5]thieno[2,3-d]pyrimidin-4-amine]",< 200 nM,200 to 1000 nM,200 to 1000 nM
"CC(O)CN(C/C=C/C(=O)N1CCc2c(sc3ncnc(Nc4ccc(OCc5ccccn5)c(Cl)c4)c23)C1)CC(C)O (stereo not drawn) [Example 52, 1,1′-({(2E)-4-[4-{[3-chloro-4-(pyridin-2-ylmethoxy)phenyl]amino}-5,8-dihydropyrido [4′,3′:4,5]thieno[2,3-d]pyrimidin-7(6H)-yl]-4-oxobut-2-en-1-yl}imino)dipropan-2-ol]",200 to 5000 nM,1000 to 10000 nM,1000 to 10000 nM

# — patent US8501755B2, “Tetrahydropyridothienopyrimidine compounds and methods of use thereof” (Bayer Intellectual Property GmbH, priority 2006, dated 2013)
